We go through 15 compounds from patent publication US12503463B2, “Aliphatic acid amide derivative” (Sumitomo Pharma Co., Ltd., priority 2019, dated 2025).

SMILES strings stand for the structures. Bounds are passed on as bounds.

As a reminder, the IC50 is the concentration that inhibits the measured activity by half. The Ki is a measure of affinity in units of concentration, obtained from inhibition or displacement.

The target of one data set is T1, hERG channel (Homo sapiens, UniProt Q12809).
T1 construct: host or cells: hERG-CHO cells
The data set can be described thus: Test 5: inhibitory activity for hERG channel (whole cell patch clamp, hERG-CHO cells). Format: cell-based. As to the method:
Test 5: Evaluation of Inhibitory Activity for hERG Channel
Inhibitory activity of the present compound for hERG channel was measured by whole cell patch clamp method with an auto patch clamp system using CHO cells in which hERG channel involved in human rapidly activating delayed rectifier potassium current (IKr) was forcibly expressed.
hERG-CHO cells purchased from ChanTest Cop. were cultured in a CO2 incubator at 37° C., and dissociated from a flask with trypsin shortly before the measurement of hERG current to prepare a cell suspension.
The cell suspension, the extracellular fluid, the intracellular fluid, and the measurement plate were set in an auto patch clamp system, and hERG current was measured by whole cell patch clamp method. […] Each pulse interval was 15 seconds. The data analysis was carried out with Qube Assay Software (Sophion Sophion). The test was carried out by applying incrementally 4 concentrations of each test compound, and the average of the maximum peak tail currents which were obtained from the last 3 stimulations in each concentration was determined as the evaluated data.
(In general: Block of hERG is tested as a sign of cardiac risk.)

The target in data set [1] is T2, human 5-HT2A receptor (Homo sapiens, UniProt P28223). The data set can be described thus: Test 1: binding activity for human 5-HT2A receptor ([3H]Ketanserin, CHO cell membrane fraction). Here is the method: (§1) Ki value was evaluated from dissociation constant which was calculated from saturated binding tests, and a substrate concentration, and it was used as an index for binding affinity.

Data set [2] in a line: Test 3-1: metabolic stability test in human hepatic microsome. The settings on record: Test 3-1: microsome 0.1 mg/mL, test compound 0.1 μmol/L, 37° C., 30 minutes. Format: in vitro ADME. As to the method: Test 3-1: Metabolic Stability Test in Human Hepatic Microsome
(§2) The metabolic stability of the present compound in human hepatic microsome was evaluated as mentioned below. Human hepatic microsome was obtained from Xenontech. Human hepatic microsome, NADPH, and each test compound were mixed in 25 mmol/L phosphate buffer solution (pH 7.4) to reach the following concentrations as shown below, and the mixture was incubated at 37° C. for 30 minutes. • Human hepatic microsome: 0.1 mg/mL • NAPDH: 3.2 mmol/L • Test compound: 0.1 μmol/L
The residual ratio of test compound in each sample after 30 minutes was measured by LC-MS, and the metabolic stability in human hepatic microsome was calculated from the following formula. Metabolic stability in human hepatic microsome(mL/min/mg protein)=−LN(residual ratio)/30/0.1

The target of data set [3] is T3, human 5-HT7 receptor (Homo sapiens, UniProt P34969). The data set can be described thus: Test 1: binding activity for human 5-HT7 receptor ([3H]SB-269970, CHO cell membrane fraction). Here is the method: as §1
Data set [4] concerns the target T3, human 5-HT7 receptor. The data set can be described thus: Test 2: antagonist activity for human 5-HT7 receptor (aequorin luminescence, CHO-K1 cells). Format: cell-based. The note with it: Gα16. Here is the method:
(§3) Test 2: Evaluation of Antagonist Activity for Human 5-HT2A Receptor and Human 5-HT7 Receptor
(§4) Aequorin, Gα 16 protein, and each receptor were transiently expressed in CHO-K1 cells (Chinese hamster ovary). The cells were cultivated in a CO2 incubator at 37° C. overnight, seeded into a 384-well plate, and stood at room temperature for 2 hours. Each compound dissolved in DMSO was added thereto, and changes in luminescence were measured by FDSS/μCELL drug discovery screening support system (Hamamatsu Photonics K.K.). As for antagonist activity, inhibitory activity of each compound was calculated by setting the luminescence level of wells to which 10 μmol/L endogenous ligand was added as 100%.

Data set [5] concerns the target T2, human 5-HT2A receptor. Briefly: Test 2: antagonist activity for human 5-HT2A receptor (aequorin luminescence, CHO-K1 cells). The class given is cell-based. The note with it: Gα16. Here is the method:
as §3, §4

The target of another data set is T4, human D2 receptor (Homo sapiens, UniProt P14416).
T4 construct: purchased PerkinElmer, Inc; host or cells: CHO cells (membrane fraction)
The data set can be described thus: Test 1: binding activity for human D2 receptor ([3H]Spiperone, CHO cell membrane fraction). The settings on record: for D2 Ki/5-HT2A Ki / D2 Ki/5-HT7 Ki: ratio of Ki values. Here is the method:
as §1

The nature of data set [6]: Test 3-2: metabolic stability test in human hepatic microsome (higher microsome concentration). The class given is in vitro ADME. The note with it: Test 3-2: microsome 0.5 or 1.0 mg/mL, test compound 0.1 μmol/L, 30 or 60 minutes. Here is the method:
Test 3-2: Metabolic Stability Test in Human Hepatic Microsome
as §2, with “For more accurate evaluation of the metabolic stability in human hepatic microsome, the metabolic” for “The metabolic”, “evaluated at an appropriate concentration of human hepatic microsome” for “evaluated”, “for 60” for “for 30”, “microsome: 0.5 or 1.0” for “microsome: 0.1”
The residual ratio of a test compound in each sample after 30 or 60 minutes was measured by LC-MS, and the metabolic stability in human hepatic microsome was calculated from the following formula. Metabolic stability in human hepatic microsome(mL/min/mg protein)=−LN(residual ratio)/reaction time/concentration of human hepatic microsome

T4 sequence (P14416 whole entry): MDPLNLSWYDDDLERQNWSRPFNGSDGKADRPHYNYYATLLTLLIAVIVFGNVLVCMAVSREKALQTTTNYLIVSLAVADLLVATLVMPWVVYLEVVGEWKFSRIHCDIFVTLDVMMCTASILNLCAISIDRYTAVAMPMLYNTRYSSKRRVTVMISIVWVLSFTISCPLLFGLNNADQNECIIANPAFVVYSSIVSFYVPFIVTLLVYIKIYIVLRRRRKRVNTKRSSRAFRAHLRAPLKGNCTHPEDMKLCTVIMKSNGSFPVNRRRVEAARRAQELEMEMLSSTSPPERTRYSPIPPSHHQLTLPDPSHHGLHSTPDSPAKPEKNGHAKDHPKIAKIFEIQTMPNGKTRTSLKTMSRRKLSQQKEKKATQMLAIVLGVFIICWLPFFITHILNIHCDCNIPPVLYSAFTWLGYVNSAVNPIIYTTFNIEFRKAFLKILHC
T1 sequence (Q12809 whole entry): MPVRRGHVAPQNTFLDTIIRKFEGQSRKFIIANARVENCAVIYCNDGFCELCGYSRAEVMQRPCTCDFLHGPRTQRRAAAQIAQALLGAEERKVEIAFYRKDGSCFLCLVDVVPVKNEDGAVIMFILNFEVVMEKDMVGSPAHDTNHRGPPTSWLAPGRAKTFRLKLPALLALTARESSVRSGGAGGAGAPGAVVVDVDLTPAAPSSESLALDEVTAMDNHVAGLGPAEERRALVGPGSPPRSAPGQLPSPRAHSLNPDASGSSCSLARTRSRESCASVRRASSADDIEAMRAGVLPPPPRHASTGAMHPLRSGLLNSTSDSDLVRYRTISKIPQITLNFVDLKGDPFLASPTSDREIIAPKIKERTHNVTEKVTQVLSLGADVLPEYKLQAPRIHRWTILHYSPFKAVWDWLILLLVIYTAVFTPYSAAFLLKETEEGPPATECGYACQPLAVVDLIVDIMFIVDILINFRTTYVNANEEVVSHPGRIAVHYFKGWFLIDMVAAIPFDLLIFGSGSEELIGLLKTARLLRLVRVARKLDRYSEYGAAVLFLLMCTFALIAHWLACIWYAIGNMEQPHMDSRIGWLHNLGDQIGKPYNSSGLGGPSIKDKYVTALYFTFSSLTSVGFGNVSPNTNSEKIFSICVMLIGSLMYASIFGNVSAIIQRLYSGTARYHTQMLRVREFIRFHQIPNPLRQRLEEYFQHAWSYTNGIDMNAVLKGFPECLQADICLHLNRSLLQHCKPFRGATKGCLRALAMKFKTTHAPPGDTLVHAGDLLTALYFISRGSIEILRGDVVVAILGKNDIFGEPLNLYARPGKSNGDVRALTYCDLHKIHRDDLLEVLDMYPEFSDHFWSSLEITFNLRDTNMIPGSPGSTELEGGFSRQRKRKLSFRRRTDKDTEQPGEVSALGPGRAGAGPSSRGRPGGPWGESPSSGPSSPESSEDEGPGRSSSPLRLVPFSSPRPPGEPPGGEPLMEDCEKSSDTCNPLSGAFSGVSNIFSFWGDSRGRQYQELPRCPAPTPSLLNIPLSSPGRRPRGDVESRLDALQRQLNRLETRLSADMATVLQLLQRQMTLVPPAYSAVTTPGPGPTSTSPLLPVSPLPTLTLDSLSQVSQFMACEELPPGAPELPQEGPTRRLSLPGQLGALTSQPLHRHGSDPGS
T2 sequence (P28223 whole entry): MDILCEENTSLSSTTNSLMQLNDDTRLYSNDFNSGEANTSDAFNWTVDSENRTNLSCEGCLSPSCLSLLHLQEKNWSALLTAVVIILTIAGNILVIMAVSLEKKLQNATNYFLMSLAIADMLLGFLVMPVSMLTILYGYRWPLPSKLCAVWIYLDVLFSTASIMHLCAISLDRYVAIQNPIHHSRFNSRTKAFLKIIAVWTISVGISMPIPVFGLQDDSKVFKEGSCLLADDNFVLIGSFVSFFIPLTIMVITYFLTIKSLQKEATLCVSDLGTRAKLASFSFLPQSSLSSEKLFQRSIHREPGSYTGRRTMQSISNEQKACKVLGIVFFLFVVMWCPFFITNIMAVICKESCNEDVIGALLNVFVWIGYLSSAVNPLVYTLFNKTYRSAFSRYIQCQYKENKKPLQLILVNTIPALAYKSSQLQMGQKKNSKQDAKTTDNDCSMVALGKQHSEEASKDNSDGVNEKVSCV
T3 sequence (P34969 whole entry): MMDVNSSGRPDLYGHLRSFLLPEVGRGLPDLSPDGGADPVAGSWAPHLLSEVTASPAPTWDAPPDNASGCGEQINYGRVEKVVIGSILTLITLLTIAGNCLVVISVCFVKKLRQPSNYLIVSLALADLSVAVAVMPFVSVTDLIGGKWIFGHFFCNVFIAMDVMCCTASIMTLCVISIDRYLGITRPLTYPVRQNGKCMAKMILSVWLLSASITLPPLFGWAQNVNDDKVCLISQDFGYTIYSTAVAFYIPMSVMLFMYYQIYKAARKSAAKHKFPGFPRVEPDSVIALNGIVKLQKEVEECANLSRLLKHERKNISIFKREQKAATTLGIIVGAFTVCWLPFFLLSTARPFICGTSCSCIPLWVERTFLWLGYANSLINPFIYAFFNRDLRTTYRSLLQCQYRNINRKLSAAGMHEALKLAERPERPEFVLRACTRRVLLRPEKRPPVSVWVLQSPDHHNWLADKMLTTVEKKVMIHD

Take `CCN(CCN1CCC(c2noc3cc(F)ccc23)CC1)C(=O)C(O)CNC(C)=O` (stereo not drawn) [Example 71, 3-Acetamide-N-ethyl-N-{2-[4-(6-fluoro-1,2-benzoisoxazol-3-yl)piperidin-1-yl]ethyl}-2-hydroxypropanamide]: the IC50 was > 10000 nM on hERG channel (hERG-CHO cells, auto patch clamp); 78 nM on human 5-HT7 receptor [4]; 25 nM against human 5-HT2A receptor [5]. Besides, the “hERG inhibitory IC50 (nmol/L)/5-HT7 Ki (nmol/L)” value on hERG channel (ratio) was >1624. For the same compound, the Ki on human 5-HT2A receptor [1] turned out to be 2.2 nM; at human 5-HT7 receptor [3], 6.2 nM; at human D2 receptor (human D2 receptor, [3H]Spiperone) it was 223 nM. The “Metabolic stability in human hepatic microsome” value (from here on “Metabolic stability”) in data set [2] is <0.05 mL/min/mg protein. In addition, the “D2 Ki/5-HT2A Ki” value at human D2 receptor came out at 99. Moreover, the “D2 Ki/5-HT7 Ki” value on human D2 receptor stood at 36.
`CCN(CCN1CCC(c2noc3cc(F)ccc23)CC1)C(=O)CCO` [Example 17, N-Ethyl-N-{2-[4-(6-fluoro-1,2-benzoisoxazol-3-yl)piperidin-1-yl]ethyl}-3-hydroxypropanamide]: the entries for the “Metabolic stability” value in data set [2] and in data set [6] were <0.05 mL/min/mg protein and 0.0025 mL/min/mg protein, respectively.
Turning to `CCN(CCN1CCC(c2noc3cc(F)ccc23)CC1)C(=O)C(O)CN` (stereo not drawn) [Example 65, 3-Amino-N-ethyl-N-{2-[4-(6-fluoro-1,2-benzoisoxazol-3-yl)piperidin-1-yl]ethyl}-2-hydroxypropanamide], the “Metabolic stability” value in data set [2] is listed as <0.05 mL/min/mg protein. On human D2 receptor, the “D2 Ki/5-HT2A Ki” value stood at 48 and the “D2 Ki/5-HT7 Ki” value stood at 26.
Regarding `CCN(CCN1CCC(c2noc3cc(F)ccc23)CC1)S(=O)(=O)C(C)CO` (stereo not drawn) [Example 52], at human D2 receptor, the “D2 Ki/5-HT2A Ki” value was >34 and the “D2 Ki/5-HT7 Ki” value is on record as >30.
Take `CCN(CCN1CCC(c2noc3cc(F)ccc23)CC1)C(=O)[C@H](C)O` [Example 16, (2S)-N-Ethyl-N-{2-[4-(6-fluoro-1,2-benzoisoxazol-3-yl)piperidin-1-yl]ethyl}-2-hydroxypropanamide]: the entries for the “Metabolic stability” value in data set [2] and in data set [6] were <0.05 mL/min/mg protein and 0.018 mL/min/mg protein, respectively.
As to `CCN(CCN1CCC(c2noc3cc(F)ccc23)CC1)S(=O)(=O)CCO` [Example 51, N-Ethyl-N-{2-[4-(6-fluoro-1,2-benzoisoxazol-3-yl)piperidin-1-yl]ethyl}-2-hydroxyethane-1-sulfonamide], the “Metabolic stability” value in data set [2] is given as <0.05 mL/min/mg protein; in data set [6], 0.016 mL/min/mg protein.
For the compound `CCN(CCN1CCC(c2noc3cc(F)ccc23)CC1)C(=O)C(O)COC` (stereo not drawn) [Example 18, N-Ethyl-N-{2-[4-(6-fluoro-1,2-benzoisoxazol-3-yl)piperidin-1-yl]ethyl}-2-hydroxy-3-methoxypropanamide], the “Metabolic stability” value in data set [2] is reported as <0.05 mL/min/mg protein.
On the same count and under the same terms, as for `CCN(CCCN1CCC(c2noc3cc(F)ccc23)CC1)S(=O)(=O)CCO` [Example 53], the figure is <0.05 mL/min/mg protein.
Regarding `CC(C)N(CCN1CCC(c2noc3cc(F)ccc23)CC1)C(=O)CCO` [Example 35], the “Metabolic stability” value in data set [2] is given as <0.05 mL/min/mg protein.
With `CCN(CCN1CCC(c2noc3cc(F)ccc23)CC1)C(=O)C1CN(C)CCC1O` (stereo not drawn) [Example 76, N-Ethyl-N-{2-[4-(6-fluoro-1,2-benzoisoxazol-3-yl)piperidin-1-yl]ethyl}-4-hydroxy-1-methylpiperidine-3-carboxamide], the “Metabolic stability” value in data set [2] is on record as <0.05 mL/min/mg protein.
Turning to `CC(O)C(=O)N(CCN1CCC(c2noc3cc(F)ccc23)CC1)CC1CC1` (stereo not drawn) [Example 30], the “Metabolic stability” value in data set [2] is recorded as <0.05 mL/min/mg protein.
Turning to `CC(O)C(=O)N(CCN1CCC(c2noc3cc(F)ccc23)CC1)C(C)C` (stereo not drawn) [Example 31], in data set [2], the “Metabolic stability” value is on record as <0.05 mL/min/mg protein.
On the same count and under the same terms, as for `CCN(CCN1CCC(c2c[nH]c3ccccc23)CC1)C(=O)C(C)O` (stereo not drawn) [Example 22, N-Ethyl-2-hydroxy-N-{2-[4-(1H-indol-3-yl)piperidin-1-yl]ethyl}propanamide], the figure is <0.05 mL/min/mg protein; as for `CCN(CCN1CCC(c2noc3ccc(F)cc23)CC1)C(=O)[C@H](C)O` [Example 45], <0.05 mL/min/mg protein; as for `CCN(CCCN1CCC(c2noc3ccccc23)CC1)S(=O)(=O)C(C)CO` (stereo not drawn) [Example 54], <0.05 mL/min/mg protein.
